Like-named read-outs stand apart in the source and are kept apart here.
Columns and labels:
[1] = Oral bioavailability, AUC and plasma concentration of CBD; assay type: in vivo, patient
Excerpt: When a medication is orally administered, its bioavailability generally decreases due to incomplete absorption and first-pass metabolism and may vary from patient to patient. The compositions of the disclosure overcome these problems because in transdermal delivery, active agent is delivered directly into systemic circulation through the skin, and it escapes the first pass hepatic metabolism therefore to achieve the desired therapeutic activity less drug is required, resulting into less adverse effects or side effects.
So, the actual dose delivering to patient upon oral delivery is described in Table 3
So, 50 sqcm patch with 7.5 ug/sqcm/hr flux will deliver 9 mg of drug in one day. And 100 sqcm of patch will deliver 18 mg of drug with same flux profile.

[2] = significant number of patients, cited from earlier work
[3] = cited from earlier work

Row | Compound | bioavailability ([1]; human, in vivo, oral, read-out: average bioavailability taken for calculation) [%] | Avg. Oral Plasma Concentration ([1]; oral dose 5 mg/kg/day) [ng/mL] | Avg. Oral Plasma Concentration ([1]; oral dose 10 mg/kg/day) [ng/mL] | reduction of total convulsive frequency ([2]; TRE (Dravet syndrome, myoclonic absence seizures, FIRES)) | seizure status at the end of three months treatment [2] | Oral AUC ([3]; oral dose 5 mg/kg/day) [ng·h/mL] | Oral AUC ([3]; oral dose 10 mg/kg/day) [ng·h/mL] | share of the administered dose that reaches systemic circulation ([3]; oral administration, hepatic first pass metabolism)
1 | C=C(C)[C@@H]1CCC(C)=C[C@H]1c1c(O)cc(CCCCC)cc1O [CBD, 2-[(1R,6R)-6-isopropenyl-3-methylcyclohex-2-en-1-yl]-5-pentylbenzene-1,3-diol] | 15 | 10.0 | 30.0 | greater than 50% | seizure free | 241 | 722 | –
2 | CCCCCc1cc(O)c2c(c1)OC(C)(C)c1ccc(C)cc1-2 [Cannabinol] | – | – | – | – | – | – | – | 10%-20%

— patent US12016829B2, “Pharmaceutical composition and method for treating seizure disorders” (Pike Therapeutics Inc, priority 2019, dated 2024)
